Data as given in patent US7204974B2, “Stabilization of oxidation-sensitive or UV-sensitive active ingredients” (Beiersdorf AG, priority 2001, dated 2007).

assay: Polarity of lipids; type: physicochemical; details: further lipids, polarity of ≧30 mN/m

Row | Compound | Polarity mN/m
1 | CCCCC(CC)COC(=O)CCCCCC(C)C (stereo not drawn) [2-Ethylhexyl Isononanoate] | 31.0 mN/m
2 | CCCCCCCC/C=C\CCCCCCCC(=O)OCCOCCOCC [Ethoxydiglycol Oleate] | 40.5 mN/m
3 | CCCCCCCCCCCCCCCCCC(C)C [Isoeicosane] | 41.9 mN/m
4 | CCCCCCCCCCCCCC(C)C [Isohexadecane] | 43.8 mN/m
5 | CCCCCCCCOC(=O)CCCCCCCCCCCCCCC(C)C [Octyl Isostearate] | 31.6 mN/m
6 | CC(CCOC(=O)CC(C)CC(C)(C)C)CC(C)(C)C (stereo not drawn) [Trimethylhexyl Isononanoate] | 31.1 mN/m
7 | Dioctylcyclohexane | 39.0 mN/m
8 | Isocetyl Palmitate | 36.2 mN/m

same assay, conditions: lipids with a polarity of at most 30 mN/m

Row | Compound | Polarity mN/m
9 | CCCCOC(=O)CCCCC(=O)OCCCC [Cetiol B, Dibutyl Adipate] | 14.3 mN/m
10 | CC(C)CCCCCCCOC(=O)C(C)(C)C [DUB VCI 10, Isodecyl Neopentanoate] | 29.9 mN/m
11 | CCCCC(CC)C(=O)OCCC(C)CC(C)(C)C (stereo not drawn) [Dermol 98, 2-Ethylhexanoic acid 3,5,5-trimethyl ester] | 26.2 mN/m
12 | CCCCCCCC(=O)OCCCCCCCC(C)C [Dermol 108, Isodecyl Octanoate] | 29.6 mN/m
13 | CC(C)CCCCCCCOC(=O)CC(C)CC(C)(C)C (stereo not drawn) [Dermol 109, Isodecyl 3,5,5-Trimethyl Hexanoate] | 29.1 mN/m
14 | CCCCCCCCCC(=O)OCCCC(C)C [Dermol IHD, Isohexyl Decanoate] | 29.7 mN/m
15 | CCCCCCOCCCCCC [Dihexyl ether, Dihexyl Ether] | 29.2 mN/m
16 | CCCCCCCCCCC(CO)CCCCCCCC (stereo not drawn) [Eutanol G, Octyldodecanol] | 24.8 mN/m
17 | CCCCCCC(CCCC)C(=O)O (stereo not drawn) [Isocarb 12, Butyl Octanoic Acid] | 22.1 mN/m
18 | CCCCCCC(CO)CCCC (stereo not drawn) [Isofol 12, Butyl Octanol] | 17.4 mN/m
19 | CCCCCCCCC(CO)CCCCCC (stereo not drawn) [Isofol 16, Hexyl Decanol] | 24.3 mN/m
20 | CCCCCCCCCCCCCCCCCC(=O)OC(C)C [Isopropyl stearate, Isopropyl Stearate] | 21.9 mN/m
21 | CCCCCCCCCCCCCC(=O)OCC(CCCCCCCC)CCCCCCCCCC (stereo not drawn) [M.O.D., Octyldodecyl Myristate] | 22.1 mN/m
22 | CCCCCCCCCCCCCCCCCCOC(=O)CCCCCC [Tegosoft SH, Stearyl Heptanoate] | 17.8 mN/m
23 | CCCCCCCC(=O)OCC(COC(=O)CCCCCCC)OC(=O)CCCCCCC [Trivent OCG, Tricaprylin] | 20.2 mN/m
24 | Cetearyl Isononanoate [Cetiol SN] | 28.6 mN/m
25 | Cyclomethicone [DC Fluid 345] | 28.5 mN/m
26 | Cyclopolydimethylsiloxane [Dow Corning Fluid 244] | 28.5 mN/m
27 | Isotridecyl 3,5,5-trimethylhexanonanoate [Dermol 139] | 24.5 mN/m
28 | PEG 2 Diethylene Hexanoate [Dermol 488] | 10.1 mN/m
29 | Phenyl Trimethicone [Silicone oil VP 1120] | 22.7 mN/m
30 | Triisostearin [Prisorine 2041 GTIS] | 2.4 mN/m
